According to patent US8193170B2, “2-methylene-19,26-dinor-(20R,22E,25R)-vitamin D analogs” (Wisconsin Alumni Research Foundation, priority 2008, dated 2012):
“Also recorded” adds a separate entry of the source.

Columns and labels:
[1] = tested on: HL-60 cells; assay: HL-60 cell differentiation (nitro blue tetrazolium reduction); type: cell-based, human; conditions: for EC50: differentiation of HL-60 cells into monocytes, FIG. 2
Method: The study drugs were dissolved in ethanol and the concentrations determined using UV spectrophotometry. Serial dilutions were prepared so that a range of drug concentrations could be tested without changing the final concentration of ethanol (≦0.2%) present in the cell cultures.
Human promyelocytic leukemia (HL60) cells were grown in RPMI-1640 medium containing 10% fetal bovine serum. The cells were incubated at 37° C. in the presence of 5% CO2.
HL60 cells were plated at 1.2×10^5 cells/ml. Eighteen hours after plating, cells in duplicate were treated with drug. Four days later, the cells were harvested and a nitro blue tetrazolium reduction assay was performed (Collins et al., 1979; J. Exp. Med. 149:969-974). The percentage of differentiated cells was determined by counting a total of 200 cells and recording the number that contained intracellular black-blue formazan deposits. Verification of differentiation to monocytic cells was determined by measuring phagocytic activity (data not shown).

[2] = tested on: 24-hydroxylase (24Ohase) gene promoter in ROS 17/2.8 (bone) cells; assay: In vitro transcription assay (24-hydroxylase gene promoter luciferase reporter); type: cell-based; conditions: for EC50: ROS 17/2.8 cells, 24-hydroxylase promoter-luciferase, FIG. 3, read-out: EC50, transcriptional activity in bone cells
Method: Transcription activity was measured in ROS 17/2.8 (bone) cells that were stably transfected with a 24-hydroxylase (24Ohase) gene promoter upstream of a luciferase reporter gene (Arbour et al., 1998). Cells were given a range of doses. Sixteen hours after dosing the cells were harvested and luciferase activities were measured using a luminometer.
RLU=relative luciferase units.

[3] = Bone calcium mobilization (serum calcium) in vitamin D-deficient rats; type: in vivo, rat; conditions: rats on 0.02% Ca diet, FIG. 4
Method: (§1) Male, weanling Sprague-Dawley rats were placed on Diet 11 (0.47% Ca) diet+AEK oil for one week followed by Diet 11 (0.02% Ca)+AEK oil for 3 weeks. The rats were then switched to a diet containing 0.47% Ca for one week followed by two weeks on a diet containing 0.02% Ca. Dose administration began during the last week on 0.02% calcium diet. Four consecutive ip doses were given approximately 24 hours apart. Twenty-four hours after the last dose, blood was collected from the severed neck and the concentration of serum calcium determined as a measure of bone calcium mobilization. The first 10 cm of the intestine was also collected for intestinal calcium transport analysis using the everted gut sac method.

[4] = Intestinal calcium transport, everted gut sac method, in vitamin D-deficient rats; type: in vivo, rat; conditions: FIG. 5
Method: as §1

[5] = target: T1, full-length recombinant rat vitamin D receptor (Rattus norvegicus, UniProt P13053); assay: Vitamin D receptor competitive binding with [3H]-1,25(OH)2D3
T1 construct: Full-length recombinant rat receptor was expressed in E. coli; histidine tag (C); made in house; host or cells: E. coli BL21 (DE3) Codon Plus RIL
T1 sequence (P13053 1-423): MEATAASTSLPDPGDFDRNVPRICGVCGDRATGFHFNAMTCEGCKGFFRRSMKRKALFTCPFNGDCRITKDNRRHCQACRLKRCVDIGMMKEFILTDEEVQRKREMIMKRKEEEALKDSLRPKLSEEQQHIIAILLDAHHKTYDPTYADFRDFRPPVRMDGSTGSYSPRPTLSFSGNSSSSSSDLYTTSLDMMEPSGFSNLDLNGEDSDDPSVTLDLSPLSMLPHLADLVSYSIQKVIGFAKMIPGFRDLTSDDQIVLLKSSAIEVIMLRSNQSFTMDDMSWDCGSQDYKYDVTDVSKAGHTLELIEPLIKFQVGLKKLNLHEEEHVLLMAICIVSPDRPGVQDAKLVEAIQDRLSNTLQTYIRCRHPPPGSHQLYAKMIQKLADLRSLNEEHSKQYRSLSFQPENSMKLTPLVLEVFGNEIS
Method: Full-length recombinant rat receptor was expressed in E. coli BL21 (DE3) Codon Plus RIL cells and purified to homogeneity using two different column chromatography systems. The first system was a nickel affinity resin that utilizes the C-terminal histidine tag on this protein. The protein that was eluted from this resin was further purified using ion exchange chromatography (S-Sepharose Fast Flow). Aliquots of the purified protein were quick frozen in liquid nitrogen and stored at −80° C. until use. For use in binding assays, the protein was diluted in TEDK50 (50 mM Tris, 1.5 mM EDTA, pH7.4, 5 mM DTT, 150 mM KCl) with 0.1% Chaps detergent. The receptor protein and ligand concentration were optimized such that no more than 20% of the added radiolabeled ligand was bound to the receptor.
Radiolabeled and unlabeled ligands were added to 100 mcl of the diluted protein at a final ethanol concentration of ≦10%, mixed and incubated overnight on ice to reach binding equilibrium. The following day, 100 mcl of hydroxylapatite slurry (50%) was added to each tube and mixed at 10-minute intervals for 30 minutes. The hydroxylapaptite was collected by centrifugation and then washed three times with Tris-EDTA buffer (50 mM Tris, 1.5 mM EDTA, pH 7.4) containing 0.5% Titron X-100. […] Total binding was determined from the tubes containing only radiolabeled ligand.

[6] = 780 pmol/day ip for 4 consecutive days

| Compound | EC50 [1] [nM] | EC50 [2] [nM] | Bone calcium mobilization (serum calcium) [3, 6] | Serum calcium levels ([3]; all dosages tested) | EC50 ([1]; Homo sapiens) [nM] | HL-60 cell differentiation activity relative to 1,25(OH)2D3 (times more) ([1]; more active than 1,25(OH)2D3) | Transcription activity of the 24-hydroxylase gene relative to 1,25(OH)2D3 (times more) ([2]; more potent than 1,25(OH)2D3, bone cells) | Intestinal calcium transport activity [4, 6] | Intestinal calcium transport, dose dependence ([4]; range of doses) | Ki ([5]; full-length recombinant rat VDR, FIG. 1, read-out: Ki, competition with [3H]-1,25(OH)2D3 for binding to the vitamin D receptor) [nM] | VDR binding potency relative to 1,25(OH)2D3 (times less potent) ([5]; less potent than 1,25(OH)2D3) | Bone calcium mobilization (serum calcium) ([3]; 2,340 pmol/day ip for 4 consecutive days) |
| --- | --- | --- | --- | --- | --- | --- | --- | --- | --- | --- | --- | --- |
| C=C1/C(=C\C=C2/CCC[C@]3(C)[C@@H]([C@H](C)CCCC(C)(C)O)CC[C@@H]23)C[C@@H](O)C[C@@H]1O [1,25(OH)2D3, 1α,25-dihydroxyvitamin D3, reference compound] | 2 | 0.2 | significant activity | increased serum calcium levels at all dosages |  |  |  |  |  |  |  |  |
| C=C1[C@H](O)CC(=C/C=C2\CCC[C@]3(C)[C@@H]([C@H](C)/C=C/C[C@@H](C)O)CC[C@@H]23)C[C@H]1O [RR-22, 2-methylene-19,26-dinor-(20R,22E,25R)-1α,25-dihydroxyvitamin D3] |  | 0.02 |  |  | 0.2 | about 10 times | about 10 times | almost the same activity as 1,25(OH)2D3 | promotes intestinal calcium transport in a dose dependent manner | 0.1 | about 10 times | did not result in any mobilization of bone calcium; also recorded: no bone calcium mobilization activity |
